Measured values reported in ChEMBL document CHEMBL3351422, “Discovery of N-substituted 7-azaindoline derivatives as potent, orally available M1 and M4 muscarinic acetylcholine receptors selective agonists” (Bioorg Med Chem Lett, 2014).

Key:
[1] = molecular target: T1, Muscarinic acetylcholine receptor M4 (Homo sapiens) (UniProt P08173); experiment: Agonist activity at muscarinic M4 receptor (unknown origin) at 0.3 uM by calcium mobilization assay; type: functional
T1 sequence (whole entry): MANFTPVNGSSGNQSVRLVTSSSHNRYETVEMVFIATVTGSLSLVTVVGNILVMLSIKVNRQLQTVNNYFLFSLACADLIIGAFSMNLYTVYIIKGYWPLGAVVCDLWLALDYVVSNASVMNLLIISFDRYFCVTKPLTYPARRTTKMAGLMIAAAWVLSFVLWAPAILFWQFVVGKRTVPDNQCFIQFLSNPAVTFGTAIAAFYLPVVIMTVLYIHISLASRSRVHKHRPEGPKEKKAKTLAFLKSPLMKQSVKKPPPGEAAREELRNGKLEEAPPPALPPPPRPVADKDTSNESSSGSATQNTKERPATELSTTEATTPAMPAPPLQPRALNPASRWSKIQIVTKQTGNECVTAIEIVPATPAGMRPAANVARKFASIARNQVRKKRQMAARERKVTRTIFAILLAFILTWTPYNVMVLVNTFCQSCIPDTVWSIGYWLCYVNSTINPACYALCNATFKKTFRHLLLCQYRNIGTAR

[2] = molecular target: T2, Muscarinic acetylcholine receptor M5 (Homo sapiens) (UniProt P08912); experiment: Agonist activity at muscarinic M5 receptor (unknown origin) at 10 uM by calcium mobilization assay; type: functional
T2 sequence (whole entry): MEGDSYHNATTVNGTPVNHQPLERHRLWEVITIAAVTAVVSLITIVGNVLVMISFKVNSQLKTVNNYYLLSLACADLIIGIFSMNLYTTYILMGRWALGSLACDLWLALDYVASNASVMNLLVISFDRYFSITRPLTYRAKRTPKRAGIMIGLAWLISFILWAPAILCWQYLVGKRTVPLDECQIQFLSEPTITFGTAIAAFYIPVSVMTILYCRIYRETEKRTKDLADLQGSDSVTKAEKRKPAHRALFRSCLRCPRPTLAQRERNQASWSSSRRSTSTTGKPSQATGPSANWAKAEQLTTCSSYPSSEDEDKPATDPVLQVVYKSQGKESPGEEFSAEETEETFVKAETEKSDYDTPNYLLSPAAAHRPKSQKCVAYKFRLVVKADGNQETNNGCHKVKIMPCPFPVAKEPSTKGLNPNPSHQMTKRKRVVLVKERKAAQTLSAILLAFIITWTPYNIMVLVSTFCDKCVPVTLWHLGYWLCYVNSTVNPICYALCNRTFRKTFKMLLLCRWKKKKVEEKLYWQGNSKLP

[3] = molecular target: T3, Muscarinic acetylcholine receptor M1 (Homo sapiens) (UniProt P11229); experiment: Agonist activity at muscarinic M1 receptor (unknown origin) at 0.3 uM by calcium mobilization assay; type: functional
T3 sequence (whole entry): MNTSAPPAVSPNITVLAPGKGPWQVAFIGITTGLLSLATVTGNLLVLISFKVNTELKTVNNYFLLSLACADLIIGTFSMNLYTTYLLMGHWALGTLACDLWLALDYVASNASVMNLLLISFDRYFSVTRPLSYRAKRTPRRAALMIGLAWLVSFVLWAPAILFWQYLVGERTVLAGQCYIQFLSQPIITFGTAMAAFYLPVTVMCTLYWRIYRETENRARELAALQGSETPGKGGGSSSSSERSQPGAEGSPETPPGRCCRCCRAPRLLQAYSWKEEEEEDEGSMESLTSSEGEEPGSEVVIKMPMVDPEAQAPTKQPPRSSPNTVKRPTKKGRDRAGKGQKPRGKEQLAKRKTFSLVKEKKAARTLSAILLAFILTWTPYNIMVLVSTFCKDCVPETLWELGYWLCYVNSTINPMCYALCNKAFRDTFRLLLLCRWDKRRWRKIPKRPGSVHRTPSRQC

[4] = Lipophilicity, log P of the compound; type: physicochemical; conditions: octanol/water
[5] = molecular target: T4, Muscarinic acetylcholine receptor M2 (Homo sapiens) (UniProt P08172); experiment: Agonist activity at muscarinic M2 receptor (unknown origin) at 0.3 uM by calcium mobilization assay; type: functional
T4 sequence (whole entry): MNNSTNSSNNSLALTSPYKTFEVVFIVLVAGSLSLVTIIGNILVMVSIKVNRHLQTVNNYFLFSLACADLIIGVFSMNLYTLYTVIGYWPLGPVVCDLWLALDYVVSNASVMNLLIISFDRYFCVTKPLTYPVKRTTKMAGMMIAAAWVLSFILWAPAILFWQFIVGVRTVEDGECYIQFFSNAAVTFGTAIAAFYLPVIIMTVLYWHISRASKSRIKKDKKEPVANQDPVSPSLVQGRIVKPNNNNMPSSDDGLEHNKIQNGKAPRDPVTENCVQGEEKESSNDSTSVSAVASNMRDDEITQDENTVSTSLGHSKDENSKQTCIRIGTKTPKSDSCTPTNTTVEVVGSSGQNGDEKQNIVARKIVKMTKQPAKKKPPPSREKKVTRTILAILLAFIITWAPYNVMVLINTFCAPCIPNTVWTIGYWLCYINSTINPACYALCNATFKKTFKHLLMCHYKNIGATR

[6] = molecular target: Muscarinic acetylcholine receptor M3 (Homo sapiens) (UniProt P20309); experiment: Agonist activity at muscarinic M3 receptor (unknown origin) at 0.3 uM by calcium mobilization assay; type: functional
[7] = Clearance in rat at 0.25 mg/kg, iv and 2.5 mg/kg, po; type: ADME, organism-based; conditions: in vivo
[8] = molecular target: T4, Muscarinic acetylcholine receptor M2 (Homo sapiens); experiment: Agonist activity at muscarinic M2 receptor (unknown origin) at 1 uM by calcium mobilization assay; type: functional
[9] = Oral bioavailability in rat at 2.5 mg/kg; type: ADME, organism-based; conditions: in vivo
[10] = molecular target: T1, Muscarinic acetylcholine receptor M4 (Homo sapiens); experiment: Agonist activity at muscarinic M4 receptor (unknown origin) at 1 uM by calcium mobilization assay; type: functional
[11] = molecular target: Muscarinic acetylcholine receptor M3 (Homo sapiens) (UniProt P20309); experiment: Agonist activity at muscarinic M3 receptor (unknown origin) at 1 uM by calcium mobilization assay; type: functional
[12] = molecular target: T3, Muscarinic acetylcholine receptor M1 (Homo sapiens); experiment: Agonist activity at muscarinic M1 receptor (unknown origin) at 1 uM by calcium mobilization assay; type: functional
[13] = molecular target: Voltage-gated inwardly rectifying potassium channel KCNH2 (Homo sapiens, UniProt Q12809); experiment: Inhibition of human ERG channel
Voltage-gated inwardly rectifying potassium channel KCNH2, sequence (Q12809 whole entry): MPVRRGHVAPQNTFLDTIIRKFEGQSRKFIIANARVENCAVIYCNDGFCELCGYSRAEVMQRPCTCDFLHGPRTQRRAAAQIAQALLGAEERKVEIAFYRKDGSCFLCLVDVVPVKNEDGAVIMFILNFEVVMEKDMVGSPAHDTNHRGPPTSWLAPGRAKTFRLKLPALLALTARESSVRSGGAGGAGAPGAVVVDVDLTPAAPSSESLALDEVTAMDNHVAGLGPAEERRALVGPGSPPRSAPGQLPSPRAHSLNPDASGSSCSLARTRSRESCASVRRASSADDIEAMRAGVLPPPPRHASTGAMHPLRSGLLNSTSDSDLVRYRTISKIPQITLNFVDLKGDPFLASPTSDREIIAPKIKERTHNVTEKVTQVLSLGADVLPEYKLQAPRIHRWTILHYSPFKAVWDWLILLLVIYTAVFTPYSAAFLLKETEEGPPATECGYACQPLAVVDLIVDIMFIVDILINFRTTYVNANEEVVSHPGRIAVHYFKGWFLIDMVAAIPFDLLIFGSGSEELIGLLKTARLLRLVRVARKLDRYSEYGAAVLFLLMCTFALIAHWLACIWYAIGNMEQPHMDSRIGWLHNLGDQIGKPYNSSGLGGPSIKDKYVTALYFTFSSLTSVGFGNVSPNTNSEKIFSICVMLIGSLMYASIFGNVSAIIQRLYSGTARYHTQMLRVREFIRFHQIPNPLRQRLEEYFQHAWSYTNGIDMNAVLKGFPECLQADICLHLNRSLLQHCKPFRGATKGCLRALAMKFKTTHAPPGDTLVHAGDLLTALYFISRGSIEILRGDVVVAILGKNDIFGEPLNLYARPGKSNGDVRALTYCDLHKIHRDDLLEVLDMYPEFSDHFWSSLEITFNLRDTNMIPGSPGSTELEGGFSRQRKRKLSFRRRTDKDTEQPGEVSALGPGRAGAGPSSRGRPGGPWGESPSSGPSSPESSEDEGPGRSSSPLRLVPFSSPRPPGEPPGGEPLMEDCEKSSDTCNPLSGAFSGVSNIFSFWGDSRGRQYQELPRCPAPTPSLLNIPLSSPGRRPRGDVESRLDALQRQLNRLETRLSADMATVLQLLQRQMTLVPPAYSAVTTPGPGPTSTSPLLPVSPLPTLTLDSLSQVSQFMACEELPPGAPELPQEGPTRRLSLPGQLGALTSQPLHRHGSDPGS

Muscarinic acetylcholine receptor M3 (Homo sapiens), sequence (P20309 whole entry, looked up): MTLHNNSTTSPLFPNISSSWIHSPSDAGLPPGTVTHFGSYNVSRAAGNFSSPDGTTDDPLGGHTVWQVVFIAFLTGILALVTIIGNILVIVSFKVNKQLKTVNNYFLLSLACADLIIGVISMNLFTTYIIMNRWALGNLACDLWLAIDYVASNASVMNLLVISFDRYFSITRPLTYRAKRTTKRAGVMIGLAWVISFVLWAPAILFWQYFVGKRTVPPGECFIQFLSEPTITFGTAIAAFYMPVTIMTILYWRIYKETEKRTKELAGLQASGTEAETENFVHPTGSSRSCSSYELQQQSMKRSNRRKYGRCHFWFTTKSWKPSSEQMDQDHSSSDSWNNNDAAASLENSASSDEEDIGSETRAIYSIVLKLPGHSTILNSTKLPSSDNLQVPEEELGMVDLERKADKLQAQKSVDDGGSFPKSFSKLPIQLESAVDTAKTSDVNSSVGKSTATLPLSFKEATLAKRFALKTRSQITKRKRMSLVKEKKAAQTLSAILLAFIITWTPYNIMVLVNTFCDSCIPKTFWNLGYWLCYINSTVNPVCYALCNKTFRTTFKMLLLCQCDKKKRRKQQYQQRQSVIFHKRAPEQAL

## CCOC(=O)N1CCC(CN2CCC3(CC2)CN(C(N)=O)c2ncccc23)CC1
[1]
  Activity: 103%
[2]
  Activity: 8%
[3]
  Activity: 99%
[4]
  logP: 2
[5]
  Activity: 17%
[6]
  Activity: 11%

## CCOC(=O)N1CCC(CN2CCC3(CC2)CC(=O)N(CC)c2ncccc23)CC1
[7]
  clearance: 49.3 mL/min/kg
[2]
  Activity: 3%
[8]
  Activity: 20%
[9]
  bioavailability: 2.6%
[10]
  Activity: 134%
[11]
  Activity: 2%
[12]
  Activity: 91%

## CCOC(=O)N1CCC(CN2CCC3(CC2)CN(C(=O)NC)c2ncccc23)CC1
[1]
  Activity: 98%
[2]
  Activity: 17%
[3]
  Activity: 74%
[4]
  logP: 2.5
[5]
  Activity: 7%
[6]
  Activity: 8%
[13]
  IC50: 300 nM

## CCOC(=O)N1CCC(CN2CCC3(CC2)OC(=O)N(C)c2ncccc23)CC1
[7]
  clearance: 71.6 mL/min/kg

## CCOC(=O)N1CCC(CN2CCC3(CC2)CN(C(=O)N(CC)CC)c2ncccc23)CC1
[2]
  Activity: 9%
[8]
  Activity: 23%
[10]
  Activity: 132%
[13]
  IC50: 2540 nM
[11]
  Activity: 4%
[12]
  Activity: 52%

## CCOC(=O)N1CCC(CN2CCC3(CC2)CN(C(=O)N2CCC2)c2ncccc23)CC1
[1]
  Activity: 29%

## CCNC(=O)N1CC2(CCN(CC3CCN(C(=O)OCC)CC3)CC2)c2cccnc21
[2]
  Activity: 11%
[8]
  Activity: 13%
[10]
  Activity: 77%
[13]
  IC50: 230 nM
[11]
  Activity: 5%
[12]
  Activity: 55%

## CCOC(=O)N1CCC(CN2CCC3(CC2)CN(C(=O)OC)c2ncccc23)CC1
[10]
  Activity: 7%

## CCOC(=O)N1CCC(CN2CCC3(CC2)CN(S(C)(=O)=O)c2ncccc23)CC1
[1]
  Activity: 88%
[2]
  Activity: 3%
[3]
  Activity: 20%
[5]
  Activity: 12%
[6]
  Activity: 7%

## CCOC(=O)N1CCC(CN2CCC3(CC2)CN(CC)c2ncccc23)CC1
[2]
  Activity: 17%
[8]
  Activity: 14%
[10]
  Activity: 58%
[11]
  Activity: 6%
[12]
  Activity: 34%

## CCOC(=O)N1CCC(CN2CCC3(CC2)OC(=O)Nc2ncccc23)CC1
[7]
  clearance: 17.5 mL/min/kg

## CCOC(=O)N1CCC(CN2CCC3(CC2)CN(C(=O)N2CCCC2)c2ncccc23)CC1
[1]
  Activity: 10%
